Data on five molecules can be found in US20060270727A1, “Small molecule therapeutics and uses therefor” (priority 2005, published 2006).

SMILES strings stand for the structures. Where two headings read alike, the source gives them in different places.

The test system of experiment [1] is GAA·TTC duplex repeats in the frataxin gene; radiolabeled PCR product containing a (GAA)6 sequence. Put plainly: Quantitative DNase I footprinting on (GAA)6 DNA. Format: binding. The conditions noted are these: for sequence specificity: DNase I footprinting; for binding affinity for duplex GAA•TTC repeat DNA, in words: compared with FA1. From the text:
Targeting GAA Repeat DNA with Polyamides. β-Alanine linked polyamides FA1-FA6 were synthesized (see Example 6) with sequence, theoretical DNA binding site, theoretical DNA binding site SEQ ID NO: ______) and binding affinity as shown in Table 1. […] Those of skill in the art will recognize that this value may be an underestimation of the affinity of this molecule for GAA repeat DNA since the KD measurements are limited by a minimum DNA concentration of ˜2 pM in the binding reaction. Radiolabeling of nucleic acid incorporated γ^32P ATP and polynucleotide kinase used standard procedures.
Polyamlde Synthesis and Characterization. Polyamides were synthesized by solid phase methods (Urbach & Dervan, Id.; Baird & Dervan, 1996, J. Am. Chem. Soc. 118:6141-6146) and their identity and purity verified by MALDI-TOF MS and analytical HPLC, using methods well known in the art. Fluorescent conjugates were prepared by coupling BODIPY (Molecular Probes) to the carboxyl-terminus (Best et al., 2003, Proc. Natl. Acad. Sci. U.S.A. 100:12063-12068). Binding affinities for match and mismatch sites were determined by quantitative DNase I footprinting (Trauger & Dervan, Id). A plasmid harboring six GAA repeats was constructed by cloning the oligonucleotide
in the pCR2.1 TOPO vector (Invitrogen, Calif.), and a 117 bp singly end-labeled PCR product was generated from this plasmid with the following oligonucleotides:
where the second oligonucleotide was labeled with γ-^32P ATP and polynucleotide kinase, using standard procedures, to generate a PCR product labeled on the GAA strand. A 204 bp singly end-labeled PCR product was derived from plasmid pMP142 DNA, containing 33 GAA repeats (Ohshima et al., Id.), with following oligonucleotides: […]

The subject of experiment [2] is sticky DNA in plasmid pRW4886, two tracts of (GAA)176. The experiment is described as follows: Sticky DNA disruption, EcoNI digestion and agarose gel. Format: biochemical. The conditions noted are these: 37° C., 1 hr. On the procedure: Influence of Polyamides on Sticky DNA Conformation. Plasmid pRW4886, which contains two tracts of (GAA)176 (SEQ ID NO: ______) in a direct repeat orientation (Vetcher et al., 2002b, Id)., and forms sticky DNA, was treated with polyamides at concentrations of 0-50 μM at 37° C. for 1 hr. Restriction digestion with EcoNI following the polyamide incubation enabled visualization of the presence or absence of an EcoNI cleaved sticky DNA band that runs with decreased mobility compared to the linearized plasmid on 1% agarose gels. Quantitation was by densitometric analysis using Fluor Chem version 3.04 (Alpha Innotech Corp).
The capacity of sequence-specific polyamides to disrupt the intramolecular sticky DNA structure formed by GAA repeat tracts was investigated. Plasmids harboring the sticky DNA structure are visualized by gel electrophoresis after restriction endonuclease cleavage, by methods well known in the art. […] Plasmid pRW4886, which contains two tracts of (GAA)176 (SEQ ID NO: ______) in a direct repeat orientation (Vetcher et al., 2002b, Id.), was incubated with each of polyamides FA1, FA2, FA3 and FA4 at concentrations ranging from 0-50 μM. The polyamide-bound DNA was then digested with EcoNI and subjected to electrophoresis on 1% agarose gels to determine the amount of EcoNI cleaved sticky DNA retarded band present. Incubation of pRW4886 DNA with FA3 shifted the equilibrium from a maximum amount of sticky DNA to a complete loss of the EcoNI cleaved sticky DNA retarded band at a concentration of 50 nM. […] For FA1, a 1 μM concentration was needed to dissociate the DNA-DNA structure-forming region. […] Since sticky DNA inhibits transcription (Ohshima et al., Id.; Sakamoto et al., 2001, J. Biol. Chem. 276:27171-27177), and since the polyamides destabilize this conformation by shifting the structural equilibrium to duplex B-type DNA, it is highly likely that the increases in frataxin mRNA observed with polyamide FA1 are due to this structural transition.

For experiment [3], the system named is mismatch DNA sequence 5′-GGAGGAGGTGGAGGAGGA-3′ from the erbB2 (Her2-neu) promoter. Put plainly: DNase I footprinting on mismatch DNA. Format: binding, human. The conditions noted are these: polyamide concentrations up to 100 nM. As for the experimental part:
Two additional molecules, FA5 [(ImPyβ)4ImβDp] and FA6 [(ImPyβ)5ImβDp], were synthesized in order to target longer regions of GAA repeats in duplex DNA; i.e., (AAG)5 (SEQ ID NO: ______) and (AAG)6 (SEQ ID NO: ______) respectively. […] As another test for sequence specificity, footprinting experiments with FA1 and FA3 and a radiolabeled DNA fragment containing a mismatch DNA sequence 5′-GGAGGAGGTGGAGGAGGA-3′ (SEQ ID NO: ______) were performed.
The first oligonucleotide shown was radiolabeled as above to generate a PCR product labeled on the GAA strand. A 150 bp PCR product containing a (GGA•TCC)6 mismatch sequence was derived from the erbB2 (Her2-neu) promoter in human genomic DNA with the following oligonucleotides: […]

Experiment [4] relates to frataxin mRNA in GM15850 FRDA lymphoid cell line. The experiment is described as follows: qRT-PCR of frataxin mRNA, FRDA cell line. Format: cell-based, human. The conditions noted are these: GM15850 FRDA cell line; 7 days incubation. From the text: GAA Specific Polyamides Up Regulate Frataxin mRNA and Protein. To assess whether polyamides alleviate transcription inhibition caused by expanded GAA repeats in the frataxin gene, quantitative real time/reverse transcriptase PCR (qRT-PCR) was used to monitor frataxin mRNA levels in the GM15850 and GM15851 lymphoid cell lines described above; levels of glyceraldehyde 3-phosphate dehydrogenase (GAPDH) mRNA were used as an internal control for each RNA sample; see Example 8. No differences in GAPDH were found between the two cell lines. […] No changes in frataxin mRNA levels were observed on shorter incubation times.
Cell Culture. Epstein Barr virus transformed lymphoblast cell lines GM15850 from a FRDA patient (alleles with 650 and 1030 GAA repeats in the frataxin gene, from the Coriell Cell Repository, Camden, N.J.), and GM15851 from an unaffected sibling (normal range of repeats), were propagated in RMPI 1640 medium with 2 mM L-glutamine and 15% fetal bovine serum at 37° C. in 5% CO2. Cell growth and morphology were monitored by phase contrast microscopy and viability by trypan blue exclusion and an ATP assay (ApoSENSOR™, BioVision). Polyamides were added directly to the culture medium in PBS. Nuclear localization of the polyamides was verified by deconvolution microscopy, by methods well known in the art (see e.g., Dudouet et al., Chem. Biol., 2003, 10: 859-867).
Real-Time Quantitative RT-PCR. Real-time quantitative RT-PCR (qRT-PCR) analysis was performed essentially as previously described (Chuma, et al., 2003, Hepatology 37:198-207), using the following primers for the frataxin gene: […]
RNA was standardized by quantification of GAPDH mRNA (Pattyn et al., 2003, Nucleic Acids Res. 31:122-123), and all values are expressed relative to GAPDH. qRT-PCR was performed using iScript One-Step RT-PCR kit with SYBR green (Biorad). Statistical analysis was performed on three independent quantitative RT-PCR experiments for each RNA sample.

Setting [5] is: quantitative DNase I footprinting, mean and standard deviation, minimum of two determinations, read-out: Binding affinity (KD).

Turning to `CN(C)CCCNC(=O)CCNC(=O)c1nc(NC(=O)CCNC(=O)c2cc(NC(=O)c3nc(NC(=O)CCNC(=O)c4cc(NC(=O)c5nc(NC(=O)CCNC(=O)c6cc(NC(=O)c7nc(NC(=O)CCNC(=O)c8cc(NC(=O)c9nccn9C)cn8C)cn7C)cn6C)cn5C)cn4C)cn3C)cn2C)cn1C` [FA5, (ImPyβ)4ImβDp], in experiment [1], the sequence specificity entry is given as “less specific than FA1 or FA3” and the “binding affinity for duplex GAA•TTC repeat DNA, in words” value is “comparable to that of FA1”. In addition, in experiment [1] (setting [5]), the Kd is 0.2 ± 0.02 nM.
On to `CN(C)CCCNC(=O)CCNC(=O)c1nc(NC(=O)CCNC(=O)c2cc(NC(=O)c3nccn3C)cn2C)cn1C` [ImPyβImβDp], for which, in experiment [1] (six bp sequence 5′-AAGAAG-3′), the binding affinity result is given as “low μM”.
For the molecule `CN(C)CCCNC(=O)CCNC(=O)c1cc(NC(=O)CCNC(=O)c2nc(NC(=O)c3nc(NC(=O)CCNC(=O)c4cc(NC(=O)c5nc(NC(=O)CCNC(=O)c6cc(NC(=O)c7nccn7C)cn6C)cn5C)cn4C)cn3C)cn2C)cn1C` [FA4, (ImPyβ)2ImImβPyβDp], in experiment [2], the “concentration needed to affect or dissociate sticky DNA” value was at least 5 µM. The Kd in experiment [1] ((GAA)6 DNA, values in text, read-out: apparent dissociation constant (KD)) was determined as 2 nM. Further, in experiment [1] (FA4 vs FA3), the “binding affinity, times less than FA3” value was about 1000 times. For the same molecule, in experiment [1] (mismatch vs match polyamide (FA2 vs FA1, FA4 vs FA3)), the “reduction of binding affinity vs match polyamide” value is recorded as “three orders of magnitude”.
Consider `CN(C)CCCNC(=O)CCNC(=O)c1nc(NC(=O)CCNC(=O)c2cc(NC(=O)c3nc(NC(=O)CCNC(=O)c4cc(NC(=O)c5nc(NC(=O)CCNC(=O)c6cc(NC(=O)c7nccn7C)cn6C)cn5C)cn4C)cn3C)cn2C)cn1C` [FA3, (ImPyβ)3ImβDp], for which, in experiment [3], the “binding to mismatch DNA sequence” value is given as “Neither FA1 nor FA3 bound this DNA sequence”. The “effect on frataxin mRNA levels, in words” value in experiment [4] is reported as “did not increase frataxin mRNA levels”. In experiment [2], the “concentration for complete loss of the EcoNI cleaved sticky DNA retarded band” value worked out at 50 nM. Besides, the Kd in experiment [1] (footprinting at low (~2 pM) DNA concentrations, may underestimate affinity, read-out: KD) is about 0.003 nM; in experiment [1] (setting [5]), 0.003 ± 0.001 nM.
For the molecule `CN(C)CCCNC(=O)CCNC(=O)c1nc(NC(=O)CCNC(=O)c2cc(NC(=O)c3nc(NC(=O)CCNC(=O)c4cc(NC(=O)c5nc(NC(=O)CCNC(=O)c6cc(NC(=O)c7nc(NC(=O)CCNC(=O)c8cc(NC(=O)c9nc(NC(=O)CCNC(=O)c%10cc(NC(=O)c%11nccn%11C)cn%10C)cn9C)cn8C)cn7C)cn6C)cn5C)cn4C)cn3C)cn2C)cn1C` [FA6, (ImPyβ)5ImβDp], in experiment [1], the sequence specificity entry is on record as “less specific than FA1 or FA3” and the “binding affinity for duplex GAA•TTC repeat DNA, in words” value is “comparable to that of FA1”. Besides, the Kd in experiment [1] (setting [5]) worked out at 0.22 ± 0.08 nM.
